In patent US20130183268A1, “DRUG COMBINATIONS WITH FLUORO-SUBSTITUTED OMEGA-CARBOXYARYL DIPHENYL UREA FOR THE TREATMENT AND PREVENTION OF DISEASES AND CONDITIONS” (BAYER HEALTHCARE LLC, priority 2010, published 2013):

Assays:
[1] = target: T1, Lck-activated c-raf (Lck/c-raf) (Homo sapiens, UniProt P04049); assay: c-raf (raf-1) biochemical assay; conditions: in words
T1 construct: GST-c-raf (from amino acid 302 to amino acid 648) and Lck (full-length); made in house; host or cells: Sf9 insect cells (baculovirus, co-infected with Lck baculovirus)
T1 sequence (P04049 302-648): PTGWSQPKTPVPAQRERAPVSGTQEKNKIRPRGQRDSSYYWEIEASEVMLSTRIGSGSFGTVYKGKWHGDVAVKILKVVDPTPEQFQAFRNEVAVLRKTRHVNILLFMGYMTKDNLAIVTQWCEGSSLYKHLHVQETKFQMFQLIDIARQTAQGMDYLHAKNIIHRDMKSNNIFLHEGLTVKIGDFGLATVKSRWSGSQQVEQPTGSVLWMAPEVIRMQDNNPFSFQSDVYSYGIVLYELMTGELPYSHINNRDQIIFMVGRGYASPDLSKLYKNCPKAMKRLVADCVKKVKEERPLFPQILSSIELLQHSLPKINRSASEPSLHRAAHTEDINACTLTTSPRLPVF
Procedure: The c-raf biochemical assay was performed with a c-raf enzyme that was activated (phosphorylated) by Lck kinase. Lck-activated c-raf (Lck/c-raf) was produced in Sf9 insect cells by co-infecting cells with baculoviruses expressing, under the control of the polyhedrin promoter, GST-c-raf (from amino acid 302 to amino acid 648) and Lck (full-length). Both baculoviruses were used at the multiplicity of infection of 2.5 and the cells were harvested 48 h post infection.
MEK-1 protein was produced in Sf9 insect cells by infecting cells with the baculovirus expressing GST-MEK-1 (full-length) fusion protein at the multiplicity of infection of 5 and harvesting the cells 48 hours post infection. Similar purification procedure was used for GST-c-raf 302-648 and GST-MEK-1.
Transfected cells were suspended at 100 mg of wet cell biomass per mL in a buffer containing 10 mM sodium phosphate, 140 mM sodium chloride pH 7.3, 0.5% Triton X-100 and the protease inhibitor cocktail. […]
Test compounds were serially diluted in DMSO using three-fold dilutions to stock concentrations ranging typically from 50 μM to 20 nM (final concentrations in the assay range from 1 μM to 0.4 nM). […] The filters were dried in a microwave, soaked in scintillation fluid and read in a Wallac 1205 Betaplate Counter (Wallac Inc., Atlanta, Ga., U.S.A.). The results were expressed as percent inhibition.

[2] = system: basal pERK in MDA-MB-231 cells; assay: Bio-Plex phospho-ERK1/2 immunoassay; format: cell-based, human
Procedure: A 96 well pERK immunoassay, using laser flow cytometry (Bio-Rad) platform has been established to measure inhibition of basal pERK in breast cancer cell line. MDA-MB-231 cells were plated at 50,000 cells per well in 96 well microtitre plates in complete growth media. For effects of test compounds on basal pERK1/2 inhibition, the next day after plating, MDA-MB-231 cells were transferred to DMEM with 0.1% BSA and incubated with test compounds diluted 1:3 to a final concentration of 3 μM to 12 nM in 0.1% DMSO. Cells were incubated with test compounds for 2 h, washed, and lysed in Bio-Plex whole cell lysis buffer A. Samples are diluted with buffer B 1:1 (v/v) and directly transferred to assay plate or frozen at −80 C. degrees until processed. 50 μL of diluted MDA-MB-231 cell lysates were incubated with about 2000 of 5 micron Bio-Plex beads conjugated with an anti-ERK1/2 antibody overnight on a shaker at room temperature. The next day, biotinylated phospho-ERK1/2 sandwich immunoassay was performed, beads are washed 3 times during each incubation and then 50 μL of PE-strepavidin was used as a developing reagent. The relative fluorescence units of pERK1/2 were detected by counting 25 beads with Bio-Plex flow cell (probe) at high sensitivity. The IC50 was calculated by taking untreated cells as maximum and no cells (beads only) as background using in an Excel spreadsheet based program.

[3] = target: mouse PDGFR (Mus musculus, UniProt P05622); assay: Murine PDGFR FRET biochemical assay; conditions: in words
Sequence of mouse PDGFR (P05622 553-1098 limits assumed): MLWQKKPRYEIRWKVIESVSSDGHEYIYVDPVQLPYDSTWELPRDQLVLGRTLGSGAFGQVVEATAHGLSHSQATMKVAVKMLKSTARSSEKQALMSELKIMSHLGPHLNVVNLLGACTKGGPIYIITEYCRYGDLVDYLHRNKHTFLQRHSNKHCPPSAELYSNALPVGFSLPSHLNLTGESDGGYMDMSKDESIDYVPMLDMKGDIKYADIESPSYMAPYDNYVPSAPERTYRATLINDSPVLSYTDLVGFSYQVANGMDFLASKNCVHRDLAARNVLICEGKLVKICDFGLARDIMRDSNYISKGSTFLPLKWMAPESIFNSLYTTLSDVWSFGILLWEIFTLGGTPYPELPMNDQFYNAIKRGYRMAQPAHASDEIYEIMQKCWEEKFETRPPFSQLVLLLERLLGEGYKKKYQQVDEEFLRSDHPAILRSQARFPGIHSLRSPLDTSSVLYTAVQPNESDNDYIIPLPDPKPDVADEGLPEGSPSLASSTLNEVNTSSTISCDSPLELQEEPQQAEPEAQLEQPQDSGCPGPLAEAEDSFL
Procedure: This assay was formatted in a 96-well black plate (Costar 3915). The following reagents are used: Europium-labeled anti-phosphotyrosine antibody pY20 (Perand streptavidin-APC; poly GT-biotin from, and mouse PDGFR. The reaction conditions are as follows: 1 nM mouse PDGFR is combined with 20 μM ATP, 7 nM poly GT-biotin, 1 nM pY20 antibody, 5 nM streptavidin-APC, and 1% DMSO in assay buffer (50 mM HEPES pH 7.5, 10 mM MgCl2, 0.1 mM EDTA, 0.015% BRIJ 35, 0.1 mg/mL BSA, 0.1% mercaptoethanol). Reaction is initiated upon addition of enzyme. Final reaction volume in each well is 100 μL. After 90 minutes, the reaction is stopped by addition of 10 μL/well of 5 μM staurosporine. Plates are read at both 615 and 665 nm on a Perkin Elmer VictorV Multilabel counter at about 1 hour after the reaction is stopped. Signal is calculated as a ratio: (665 nm/615 nm)*10000 for each well.
For IC50 generation for both PDGFR and Flk-1, compounds were added prior to the enzyme initiation. A 50-fold stock plate was made with compounds serially diluted 1:3 in a 50% DMSO/50% dH2O solution. […] The data were expressed as percent inhibition: % inhibition=100−((Signal with inhibitor-background)/(Signal without inhibitor-background))*100

[4] = Metabolite profile, incubation of [14C]regorafenib with liver microsomes (man); format: in vitro ADME; conditions: [14C]regorafenib 20 μM, liver microsomes 0.5 mg/mL, 60 min
Procedure: (§1) N-oxide (M-2), hydroxymethyl (M-3), de-methylated (M-4) and N-oxide-demethylated (M-5) metabolites of the fluoro-substituted diaryl urea of Formula (I) are shown below. They were identified as metabolites of regorafenib in vitro upon incubation with liver enzymes of various mammalian species (man, dog, rat, mouse). Studies reveal that its metabolites show high protein binding in man and animal species (data not shown). [table]

[5] = Metabolite profile, incubation of [14C]regorafenib with liver microsomes (mouse); format: in vitro ADME, NMRI mouse; conditions: [14C]regorafenib 20 μM, liver microsomes 0.5 mg/mL, 60 min
Procedure: as §1

With `CNC(=O)c1cc(Oc2ccc(NC(=O)Nc3ccc(Cl)c(C(F)(F)F)c3)c(F)c2)ccn1` [Example 1, 4{4-[3-(4-chloro-3-trifluoromethylphenyl)-ureido]-3-fluorophenoxy}-pyridine-2-carboxylic acid methylamide] the “inhibition of raf kinase” value [1] was “potent inhibition”, the IC50 ([2]; Homo sapiens, MDA-MB-231 cells, 2 h) was 22 nM and the “inhibition of basal pERK” value ([2]; in words) was “significant inhibition”. The “inhibition of PDGFR kinase” value [3] was “significant inhibition”, the “% of radioactivity, Man” value [4] was 59.1% and the “% of radioactivity, NMRI mouse” value [5] was 57.8%.
